Experimental data reported in the NIST ThermoML archive (doi:10.1021/je8008182).

Assay: xn = mol fraction of the nth substance listed
Conditions: 101 kPa, Liquid; for viscosity: Capillary tube (Ostwald / Ubbelohde) method; for mass density: Pycnometric method

Cc1ccncc1 [4-methylpyridine] + O
Conditions | mass density [kg/m3] | viscosity [mPa·s]
298.15 K, x1 = 0.0211 | 996.2 | 1.172
298.15 K, x1 = 0.0489 | 993.6 | 1.499
298.15 K, x1 = 0.1143 | 991.3 | 2.141
298.15 K, x1 = 0.225 | 984.8 | 2.602
298.15 K, x1 = 0.3111 | 983 | 2.521
298.15 K, x1 = 0.4 | 978.9 | 2.202
298.15 K, x1 = 0.5 | 970.4 | 1.88
298.15 K, x1 = 0.6353 | 964.1 | 1.539
298.15 K, x1 = 0.75 | 961.4 | 1.379
298.15 K, x1 = 0.9 | 958.7 | 1.09
298.15 K, x1 = 1 | 955.4 | 0.8723
303.15 K, x1 = 0.0211 | 994.2 | 1.037
303.15 K, x1 = 0.0489 | 991.2 | 1.325
303.15 K, x1 = 0.1143 | 987.9 | 1.844
303.15 K, x1 = 0.225 | 981.2 | 2.238
303.15 K, x1 = 0.3111 | 978.7 | 2.164
303.15 K, x1 = 0.4 | 972.1 | 1.904
303.15 K, x1 = 0.5 | 965.4 | 1.657
303.15 K, x1 = 0.6353 | 959.8 | 1.381
303.15 K, x1 = 0.75 | 956.4 | 1.16
303.15 K, x1 = 0.9 | 953.8 | 0.9871
303.15 K, x1 = 1 | 951.1 | 0.8175
308.15 K, x1 = 0.0211 | 992.1 | 0.9037
308.15 K, x1 = 0.0489 | 988.3 | 1.165
308.15 K, x1 = 0.1143 | 984.5 | 1.58
308.15 K, x1 = 0.225 | 977.6 | 1.924
308.15 K, x1 = 0.3111 | 974.2 | 1.9
308.15 K, x1 = 0.4 | 970.7 | 1.789
308.15 K, x1 = 0.5 | 964.9 | 1.595
308.15 K, x1 = 0.6353 | 955.3 | 1.247
308.15 K, x1 = 0.75 | 950.5 | 1.068
308.15 K, x1 = 0.9 | 946 | 0.7846
308.15 K, x1 = 1 | 941.3 | 0.7774
313.15 K, x1 = 0.0211 | 990 | 0.8272
313.15 K, x1 = 0.0489 | 986 | 1.044
313.15 K, x1 = 0.1143 | 980.9 | 1.4
313.15 K, x1 = 0.225 | 973.2 | 1.682
313.15 K, x1 = 0.3111 | 969.5 | 1.649
313.15 K, x1 = 0.4 | 965.9 | 1.561
313.15 K, x1 = 0.5 | 960.5 | 1.419
313.15 K, x1 = 0.6353 | 950.5 | 1.129
313.15 K, x1 = 0.75 | 945.9 | 0.9708
313.15 K, x1 = 0.9 | 941.6 | 0.7395
313.15 K, x1 = 1 | 936.6 | 0.7368
318.15 K, x1 = 0.0211 | 987.5 | 0.7494
318.15 K, x1 = 0.0489 | 983.3 | 0.9363
318.15 K, x1 = 0.1143 | 977.1 | 1.234
318.15 K, x1 = 0.225 | 969 | 1.467
318.15 K, x1 = 0.3111 | 965 | 1.441
318.15 K, x1 = 0.4 | 961.2 | 1.365
318.15 K, x1 = 0.5 | 955.7 | 1.263
318.15 K, x1 = 0.6353 | 945.9 | 1.019
318.15 K, x1 = 0.75 | 941.4 | 0.8874
318.15 K, x1 = 0.9 | 937 | 0.6952
318.15 K, x1 = 1 | 932.1 | 0.6855
323.15 K, x1 = 0.0211 | 985 | 0.6775
323.15 K, x1 = 0.0489 | 980.3 | 0.8486
323.15 K, x1 = 0.1143 | 973.4 | 1.099
323.15 K, x1 = 0.225 | 964.8 | 1.304
323.15 K, x1 = 0.3111 | 960.7 | 1.279
323.15 K, x1 = 0.4 | 956.5 | 1.207
323.15 K, x1 = 0.5 | 951 | 1.136
323.15 K, x1 = 0.6353 | 941.4 | 0.9623
323.15 K, x1 = 0.75 | 936.7 | 0.8112
323.15 K, x1 = 0.9 | 932.5 | 0.6516
323.15 K, x1 = 1 | 927.7 | 0.6505
328.15 K, x1 = 0.0211 | 983 | 0.6136
328.15 K, x1 = 0.0489 | 977.3 | 0.762
328.15 K, x1 = 0.1143 | 969.5 | 0.9781
328.15 K, x1 = 0.225 | 960.4 | 1.147
328.15 K, x1 = 0.3111 | 956 | 1.119
328.15 K, x1 = 0.4 | 952 | 1.069
328.15 K, x1 = 0.5 | 946.3 | 1.007
328.15 K, x1 = 0.6353 | 936.7 | 0.8648
328.15 K, x1 = 0.75 | 932.1 | 0.7423
328.15 K, x1 = 0.9 | 927.8 | 0.6014
328.15 K, x1 = 1 | 923.2 | 0.5905
333.15 K, x1 = 0.0211 | 979.3 | 0.5649
333.15 K, x1 = 0.0489 | 974.1 | 0.6555
333.15 K, x1 = 0.1143 | 965.8 | 0.8941
333.15 K, x1 = 0.225 | 956.4 | 1.037
333.15 K, x1 = 0.3111 | 951.4 | 1.008
333.15 K, x1 = 0.4 | 947.5 | 0.9636
333.15 K, x1 = 0.5 | 941.6 | 0.9199
333.15 K, x1 = 0.6353 | 931.9 | 0.7522
333.15 K, x1 = 0.75 | 927.3 | 0.6899
333.15 K, x1 = 0.9 | 923 | 0.5378
333.15 K, x1 = 1 | 918.5 | 0.5329
338.15 K, x1 = 0.0211 | 976.3 | 0.5403
338.15 K, x1 = 0.0489 | 970.8 | 0.6149
338.15 K, x1 = 0.1143 | 961.7 | 0.8036
338.15 K, x1 = 0.225 | 952.2 | 0.9466
338.15 K, x1 = 0.3111 | 946.9 | 0.9064
338.15 K, x1 = 0.4 | 942.8 | 0.8656
338.15 K, x1 = 0.5 | 936.7 | 0.8403
338.15 K, x1 = 0.6353 | 927.5 | 0.6948
338.15 K, x1 = 0.75 | 922.6 | 0.641
338.15 K, x1 = 0.9 | 918.5 | 0.4964
338.15 K, x1 = 1 | 914 | 0.4815
